Source: US20040072770A1, “Methods for specifically inhibiting histone deacetylase-7 and 8” (priority 2002, published 2004)

Legend:
HDAC-1 = HDAC-1 (Homo sapiens, UniProt Q13547); assay: Enzyme inhibitory activity, HD1; format: biochemical; conditions: read-out: IC50 HD 1
[1] = system: prostate carcinoma cells Du145 tumors; assay: Tumor growth in a mouse model, Du145; format: in vivo; conditions: (60,I): 60 mg/kg body weight/day, intraperitoneal; BALB/c nude mice; vs vehicle-treated
Protocol: (§1) Female BALB/c nude mice are obtained from Charles River Laboratories (Charles River, N.Y.) and used at age 8-10 weeks. Human tumor cells (2×10^6, colon carcinoma cells HCT116 or SW48, lung carcinoma cells A549, pancreatic carcinoma Panc-1, ovarian carcinoma cells ES2, or prostate carcinoma cells Du145) are injected subcutaneously in the animal's flank and allowed to form solid tumors. Tumor fragments are serially passaged a minimum of three times, then approximately 30 mg tumor fragments are implanted subcutaneously through a small surgical incision under general anaesthesia. Small molecule inhibitor administration by intraperotineal or oral administration was initiated when the tumors reached a volume of 100 mm^3. For intraperotineal administration, small molecule inhibitors of HDAC-7, HDAC-8 or both, or in combination with small molecule inhibitors of HDAC-1 (20-60 mg/kg body weight/day) are dissolved in 100% DMSO and administered daily by injection. For oral administration, small molecule inhibitors of HDAC (60 mg/kg body weight) are dissolved in saline acidified with 0.2 N HCl. Tumor volumes are monitored twice weekly up to 20 days. Each experimental group contains at least 6-8 animals. Percentage inhibition is calculated using volume of tumor from vehicle-treated mice as controls. […]

HDAC-4 = HDAC-4 (Homo sapiens, UniProt P56524); assay: Enzyme inhibitory activity, HD4; format: biochemical
[2] = system: pancreatic carcinoma Panc-1 tumors; assay: Tumor growth in a mouse model, Panc-1; format: in vivo; conditions: BALB/c nude mice, vs vehicle-treated
Protocol: as §1

colon cancer cells SW48 = assay: MTT assay, SW48; format: cell-based; conditions: Homo sapiens, 72 hours, read-out: MTT IC50 SW 48
Protocol: (§2) Effects of HDAC isotype-specific small molecule inhibitors on growth inhibition of various human cancer cells (from ATCC) in vitro were determined by MTT assays. Briefly, cells seeded in 96-well plates were incubated for 72 hours at 37° C. in a 5% CO2 incubator. MTT (Sigma) was added at a final concentration of 0.5 mg/ml and incubated with the cells for 4 hours before an equal volume of solubilization buffer (50% N,N-dimethylformamide, 20% SDS, pH 4.7) was added onto cultured cells. After overnight incubation, solubilized dye was quantified by colorimetric reading at […] using a reference at 630 nM. OD values were converted to cell numbers according to a standard growth curve of the relevant cell line. The concentration which reduces cell numbers to 50% of those of DMSO-treated cells is determined as MTT IC50. In Table 4, IC50s of several HDAC7 or HDAC8 inhibitors in MTT assays in various human cancer cell lines were listed. They include colon cancer cells HCT116 and SW48, lung cancer cells A549 and H446, breast cancer cells MCF-7 and MDAmb231, a prostate cancer cell line Du145 and a bladder cancer cell line T24.

[3] = system: colon carcinoma cells HCT116 tumors; assay: Tumor growth in a mouse model, HCT116; format: in vivo; conditions: intraperitoneal, BALB/c nude mice, vs vehicle-treated
Protocol: Female BALB/c nude mice are obtained from Charles River Laboratories (Charles River, N.Y.) and used at age 8-10 weeks. Human tumor cells (2×10^6, colon carcinoma cells HCT116 or SW48, lung carcinoma cells A549, pancreatic carcinoma Panc-1, ovarian carcinoma cells ES2, or prostate carcinoma cells Du145) are injected subcutaneously in the animal's flank and allowed to form solid tumors. Tumor fragments are serially passaged a minimum of three times, then approximately 30 mg tumor fragments are implanted subcutaneously through a small surgical incision under general anaesthesia. Small molecule inhibitor administration by intraperotineal or oral administration was initiated when the tumors reached a volume of 100 mm^3. For intraperotineal administration, small molecule inhibitors of HDAC-7, HDAC-8 or both, or in combination with small molecule inhibitors of HDAC-1 (20-60 mg/kg body weight/day) are dissolved in 100% DMSO and administered daily by injection. For oral administration, small molecule inhibitors of HDAC (60 mg/kg body weight) are dissolved in saline acidified with 0.2 N HCl. Tumor volumes are monitored twice weekly up to 20 days. Each experimental group contains at least 6-8 animals. Percentage inhibition is calculated using volume of tumor from vehicle-treated mice as controls. Shown in Table 4, inhibition of HDAC7 or HDAC8 in combination with HDAC1 leads to inhibition of growth of various human tumors in vivo.

[4] = system: lung carcinoma cells A549 tumors; assay: Tumor growth in a mouse model, A549; format: in vivo; conditions: BALB/c nude mice, vs vehicle-treated
Protocol: as §1

lung cancer cells H446 = assay: MTT assay, H446; format: cell-based; conditions: Homo sapiens, NCI-H446; 72 hours; read-out: MTT IC50 H 446
Protocol: as §2

[5] = system: bladder cancer cell line T24; assay: MTT assay, T24; format: cell-based; conditions: Homo sapiens; 72 hours; read-out: MTT IC50 T 24
Protocol: as §2

HDAC-8 = target: T1, HDAC-8 (Homo sapiens, UniProt Q9BY41); assay: Enzyme inhibitory activity, HD8; format: biochemical; conditions: read-out: IC50 HD 8
T1 sequence (Q9BY41 1-377): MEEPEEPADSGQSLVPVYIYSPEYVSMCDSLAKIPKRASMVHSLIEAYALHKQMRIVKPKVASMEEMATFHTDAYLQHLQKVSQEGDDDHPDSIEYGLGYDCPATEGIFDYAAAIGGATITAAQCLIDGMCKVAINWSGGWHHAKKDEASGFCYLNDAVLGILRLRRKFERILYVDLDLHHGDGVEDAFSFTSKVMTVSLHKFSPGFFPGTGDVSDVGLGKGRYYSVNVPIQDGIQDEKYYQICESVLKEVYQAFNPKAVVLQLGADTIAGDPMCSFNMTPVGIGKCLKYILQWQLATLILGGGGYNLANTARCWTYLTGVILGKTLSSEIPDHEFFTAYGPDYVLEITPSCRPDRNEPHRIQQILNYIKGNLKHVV

[6] = system: colon carcinoma cells SW48 tumors; assay: Tumor growth in a mouse model, SW48; format: in vivo; conditions: (6,0,O): oral; BALB/c nude mice; vs vehicle-treated
Protocol: as §1

[7] = (20,I): 20 mg/kg body weight/day

HDAC-4, sequence (P56524 whole entry): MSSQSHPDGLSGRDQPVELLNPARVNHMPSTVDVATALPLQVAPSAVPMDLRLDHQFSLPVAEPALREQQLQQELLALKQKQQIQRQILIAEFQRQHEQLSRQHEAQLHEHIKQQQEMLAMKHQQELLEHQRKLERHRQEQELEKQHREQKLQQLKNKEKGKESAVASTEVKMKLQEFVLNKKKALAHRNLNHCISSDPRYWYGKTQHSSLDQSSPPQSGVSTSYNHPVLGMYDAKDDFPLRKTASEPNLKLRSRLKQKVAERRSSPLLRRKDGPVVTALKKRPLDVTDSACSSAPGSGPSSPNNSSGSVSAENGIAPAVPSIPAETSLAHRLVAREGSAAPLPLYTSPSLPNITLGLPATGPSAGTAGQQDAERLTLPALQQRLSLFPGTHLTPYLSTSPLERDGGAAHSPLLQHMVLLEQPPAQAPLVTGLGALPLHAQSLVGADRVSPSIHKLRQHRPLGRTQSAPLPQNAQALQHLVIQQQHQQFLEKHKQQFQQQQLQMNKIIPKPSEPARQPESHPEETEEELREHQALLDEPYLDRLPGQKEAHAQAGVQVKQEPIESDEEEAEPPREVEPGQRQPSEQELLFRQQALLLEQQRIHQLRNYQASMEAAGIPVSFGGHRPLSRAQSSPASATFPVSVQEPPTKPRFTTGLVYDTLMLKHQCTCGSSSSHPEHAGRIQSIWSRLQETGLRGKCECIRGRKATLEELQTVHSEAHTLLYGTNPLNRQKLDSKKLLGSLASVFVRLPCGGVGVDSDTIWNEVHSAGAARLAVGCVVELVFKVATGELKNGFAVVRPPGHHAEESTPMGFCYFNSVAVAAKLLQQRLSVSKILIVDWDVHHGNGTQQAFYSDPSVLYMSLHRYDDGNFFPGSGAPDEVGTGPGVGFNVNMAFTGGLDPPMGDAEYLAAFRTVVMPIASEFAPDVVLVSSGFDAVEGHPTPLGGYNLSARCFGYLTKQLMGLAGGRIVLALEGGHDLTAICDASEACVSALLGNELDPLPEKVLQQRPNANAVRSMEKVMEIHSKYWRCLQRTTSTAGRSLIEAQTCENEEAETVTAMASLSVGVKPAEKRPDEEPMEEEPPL
HDAC-1, sequence (Q13547 whole entry): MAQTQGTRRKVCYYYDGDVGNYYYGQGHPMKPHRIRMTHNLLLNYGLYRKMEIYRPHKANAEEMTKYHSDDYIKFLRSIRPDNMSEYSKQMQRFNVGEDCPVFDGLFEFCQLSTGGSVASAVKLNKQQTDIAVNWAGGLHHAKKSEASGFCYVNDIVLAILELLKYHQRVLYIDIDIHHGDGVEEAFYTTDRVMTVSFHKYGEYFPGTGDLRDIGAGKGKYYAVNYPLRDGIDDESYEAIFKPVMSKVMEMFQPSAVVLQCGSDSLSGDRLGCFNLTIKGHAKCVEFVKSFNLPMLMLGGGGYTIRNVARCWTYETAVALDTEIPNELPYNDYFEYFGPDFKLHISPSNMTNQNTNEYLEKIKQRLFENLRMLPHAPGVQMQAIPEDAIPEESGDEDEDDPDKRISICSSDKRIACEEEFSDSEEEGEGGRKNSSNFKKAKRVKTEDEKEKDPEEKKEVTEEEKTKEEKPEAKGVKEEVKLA

`COc1ccc(NCc2ccc(C(=O)Nc3ccccc3N)cc2)cc1OC` [Compound 17, N-(2-Aminophenyl)-4-[(3,4-dimethoxyphenylamino)-methyl]-benzamide] was tested, and the IC50 (HDAC-1) was 2000 nM, the “% of Inhibition of Tumor Growth in Vivo DU 145” value [1] was >50(60,I) % and the IC50 (HDAC-4) was greater than 50000 nM. The “% of Inhibition of Tumor Growth in Vivo PANC-1” value ([2]; (60,O): 60 mg/kg body weight, oral) was 78(60,O) %, the IC50 (colon cancer cells SW48) was 2000 nM and the “% of Inhibition of Tumor Growth in Vivo HCT116” value (“% of Inhibition … in Vivo HCT116” below) [3, 7] was 77(20,I) %. The “% of Inhibition of Tumor Growth in Vivo A 549” value ([4]; (5,0,O): oral) was 67(5,0,O) %, the IC50 (lung cancer cells H446) was 900 nM and the IC50 [5] was 2000 nM. The IC50 (HDAC-8) was greater than 50000 nM and the “% of Inhibition of Tumor Growth in Vivo SW 48” value [6] was 68(6,0,O) %.
`Nc1ccccc1NC(=O)c1ccc(CSc2nc3ccccc3[nH]2)cc1` [Compound 16, N-(2-Amino-phenyl)-4-(1H-benzimidazol-2-ylsulfanylmethyl)-benzamide] was tested, and the IC50 (HDAC-1) was 300 nM, the IC50 (HDAC-4) was 29000 nM and the IC50 (colon cancer cells SW48) was 2000 nM. For the same molecule, the “% of Inhibition … in Vivo HCT116” value [3, 7] was 61(20,I) %, the IC50 (lung cancer cells H446) was 1000 nM and the IC50 [5] was 1000 nM.
`Cc1ccc(S(=O)(=O)Nc2ccc(/C=C/C(=O)Nc3ccccc3N)cc2)cc1` [Compound 5, N-(2-Aminophenyl)-3-[4-(4-methylbenzenesulfonylamino)-phenyl]-acrylamide] was tested, and the IC50 (colon cancer cells SW48) was 10000 nM, the “% of Inhibition … in Vivo HCT116” value [3, 7] was 48(20,I) % and the “% of Inhibition … in Vivo HCT116” value ([3]; (40,I): 40 mg/kg body weight/day) was 55(40,I) %. For the same molecule, the IC50 (lung cancer cells H446) was 1000 nM, the IC50 [5] was 8000 nM and the IC50 (HDAC-8) was greater than 50000 nM.
`COc1ccc(-c2ccnc(NCc3ccc(C(=O)Nc4ccccc4N)cc3)n2)cc1OC` [Compound 21, N-(2-Amino-phenyl)-4-{[4-(3,4-dimethoxy-phenyl)-pyrimidin-2-ylamino]-methyl}-benzamide] was tested, and the IC50 (HDAC-1) was 4000 nM, the IC50 (HDAC-4) was greater than 50000 nM and the “% of Inhibition of Tumor Growth in Vivo PANC-1” value ([2]; (3,0,I): intraperitoneal) was >50(3,0,I) %. For the same molecule, the IC50 (colon cancer cells SW48) was 800 nM, the “% of Inhibition of Tumor Growth in Vivo A 549” value ([4]; (30,I): 30 mg/kg body weight/day, intraperitoneal) was >50(30,I) % and the IC50 (lung cancer cells H446) was 300 nM. It also gave an IC50 (HDAC-8) greater than 50000 nM.
